Measurements reported in US20220380310A1, “P2X7R ANTAGONISTS” (priority 2019, published 2022).
Counter-ions that a name gives are not always drawn.

Biological target: T1, Human P2X1 receptor (P2X1R) (Homo sapiens, UniProt P51575)
T1 construct: expressed in transfected cells; host or cells: HEK-293
T1 sequence (P51575 1-399): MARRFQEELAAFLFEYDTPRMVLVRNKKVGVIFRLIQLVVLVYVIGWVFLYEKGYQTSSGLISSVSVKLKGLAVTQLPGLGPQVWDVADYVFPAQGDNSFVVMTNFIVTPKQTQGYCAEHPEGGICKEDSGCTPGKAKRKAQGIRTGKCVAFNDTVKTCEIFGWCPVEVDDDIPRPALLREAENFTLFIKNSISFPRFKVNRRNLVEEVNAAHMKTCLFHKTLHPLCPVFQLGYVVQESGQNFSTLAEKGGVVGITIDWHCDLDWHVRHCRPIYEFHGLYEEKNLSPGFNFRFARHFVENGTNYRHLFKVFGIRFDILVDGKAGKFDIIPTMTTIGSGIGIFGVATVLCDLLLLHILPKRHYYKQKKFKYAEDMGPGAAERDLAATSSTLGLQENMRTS
Experiment: Receptor-mediated calcium entrance assay (Calcium Assay), P2X1R transfected HEK-293 cells
Format: cell-based
Conditions: ATP 20 μM stimulus
Description: Human P2X1 receptor (P2X1R) is a member of P2X family. […] Thus, the calcium assay was used. In the calcium assay, P2X receptor activation leads to opening of ion channels, which increases intracellular calcium concentration. The increased intracellular calcium concentration can be detected by a calcium indicator dye such as Fluo-4 or Fluo-8. Molecular Probes™ Fluo-4, AM (Cat. No. F14201 from Fisher Scientific) was used in the assay. The procedures were similar as described in the Yo-Pro-1 assay until day 4. The construct of P2X1R for transient transfection to HEK-293 cells was the courtesy from Dr. Richard J. Evans laboratory (J. Biol. Chem. 279:9043-9055). After transfection and expression, on day 4 cells were washed twice by Ca-HBSS (The composition (in mM) was NaCl 135, HEPES 10, D-glucose 10, KCl 5.4, CaCl2 2, and MgCl2 1, pH to 7.4 by NaOH) and incubated in dye loading solution (The solution contained 2.5 μM Fluo-4, 1 mM probenecid, and 1× PowerLoad (Cat. No. P10020 from Fisher Scientific) in Ca-HBSS) for 70 minutes at 37° C. Then the extracellular loading dye was washed away and cells were incubated at Ca-HBSS containing 1 mM probenecid for 30 minutes. Before the final steps, probenecid was washed away with Ca-HBSS. The assay was performed by adding 25 μl of Ca-HBSS followed by 25 μl of various test compounds. At this point, the base level of fluorescence was obtained through the microplate reading—the base microplate reading for this assay. At the end, the stimulus (ATP at 20 μM was the final concentration for P2X1R) was added to activate the P2X1R. Activation of P2X1R opened the channel to allow influx of calcium, which was represented by fluorescence increases that were measured by the microplate device with excitation at 475 nm and emission wavelength in the range of 500-550 nm. The data were analyzed the same way as described before: The result of each well was first normalized by its corresponding base microplate reading. Then, the negative control signal was subtracted from. In the negative control, the test compound and the stimulus were replaced by Ca-HBSS. […] An average of six highest values of the plate (AVG) were considered as 100% and the value of each well was divided by AVG and presented as the relative values in percentages.

SMILES	Percentage of activity remains in the presence of the compound at 5 μM, P2X1R (Calcium Assay)
Cc1nc(N=Nc2ccc(S(=O)(=O)[O-])cc2S(=O)(=O)[O-])c(COP(=O)([O-])[O-])c(C=O)c1O.[Na+].[Na+].[Na+].[Na+] [PPADS, Pyridoxalphosphate-6-azophenyl-2′,4′-disulfonic acid tetrasodium, reference compound]	26.7%

Same assay, conditions: HEK293, compound at 5 μM, ATP 20 μM stimulus, read-out: Percentage of activity remains in the presence of the compound at 5 μM, P2X1R (Calcium Assay)

SMILES	remaining activity at 5 µM
CS(=O)(=O)c1ccc(N2CCCC(NC(=O)CCc3ccccc3)C2)cc1 (centres unmarked) [#1]	56.5%
COc1ccc(S(=O)(=O)N2CCCC(NC(=O)CCc3ccccc3)C2)cc1 (centres unmarked) [#2]	39.1%
O=C(CCc1ccccc1)NC1CCCN(S(=O)(=O)c2ccc(F)cc2)C1 (centres unmarked) [#3]	33.3%
O=C(CCc1ccccc1)NC1CCCN(S(=O)(=O)c2ccc(OCc3ccccc3)cc2)C1 (centres unmarked) [#4]	43.7%
O=C(CCc1ccccc1)NC1CCCN(S(=O)(=O)c2ccc(N3CCCCC3)cc2)C1 (centres unmarked) [#5]	59.6%
CC(C)COc1ccc(S(=O)(=O)N2CCCC(NC(=O)CCc3ccccc3)C2)cc1 (centres unmarked) [#6]	51%
CC(C)S(=O)(=O)c1ccc(N2CCCC(NC(=O)CCc3ccccc3)C2)cc1 (centres unmarked) [#7]	65.6%
O=C(CCc1ccccc1)NC1CCCN(S(=O)(=O)Cc2ccc(Br)cc2)C1 (centres unmarked) [#8]	67%
O=C(CCc1ccccc1)NC1CCCN(S(=O)(=O)c2ccc(-n3cc(Br)cn3)cc2)C1 (centres unmarked) [#9]	92.8%
O=S(=O)(c1ccccc1)C1CN(S(=O)(=O)c2ccc(N3CCCCC3)cc2)C1 [#10]	51.5%
O=S(=O)(c1ccccc1)C1CN(S(=O)(=O)c2ccc(N3CCOCC3)cc2)C1 [#11]	44.3%
O=C(CCc1ccccc1)NC1CCCN(S(=O)(=O)c2ccc(N3CCOCC3)cc2)C1 (centres unmarked) [#12]	52.8%
O=C(CCc1ccccc1)NC1CCCN(S(=O)(=O)c2ccc(N3CCCC3)cc2)C1 (centres unmarked) [#13]	54.2%
CN(C)c1ccc(S(=O)(=O)N2CCCC(NC(=O)CCc3ccccc3)C2)cc1 (centres unmarked) [#14]	63.9%
CCCCNc1ccc(S(=O)(=O)N2CCCC(NC(=O)CCc3ccccc3)C2)cc1 (centres unmarked) [#15]	70.1%
O=C1CCC(N2Cc3c(NC(=O)CCc4ccccc4)cccc3C2=O)C(=O)N1 (centres unmarked) [#16]	51.5%
COCCOc1ccc(S(=O)(=O)N2CCCC(NC(=O)CCc3ccccc3)C2)cc1 (centres unmarked) [#17]	60.9%
CN1CCN(c2ccc(S(=O)(=O)N3CCCC(NC(=O)CCc4ccccc4)C3)cc2)CC1 (centres unmarked) [#18]	62.3%
O=C(NCCc1ccccc1)C1CCN(S(=O)(=O)c2ccc(N3CCCCC3)cc2)CC1 [#20]	75.4%
O=C(NCCc1ccccc1)C1CCN(S(=O)(=O)c2ccc(N3CCCC3)cc2)CC1 [#21]	50.2%
CC(C)(C)OC(=O)N1CCN(c2ccc(S(=O)(=O)N3CCC(C(=O)NCCc4ccccc4)CC3)cc2)CC1 [#22]	59.2%
O=C(NCCc1ccccc1)C1CCN(S(=O)(=O)c2ccc(N3CCOCC3)cc2)CC1 [#23]	75.5%
O=C(NCCc1ccccc1)C1CCCN(S(=O)(=O)c2ccc(N3CCOCC3)cc2)C1 (centres unmarked) [#24]	66.3%
O=C(NCCc1ccccc1)C1CCCN(S(=O)(=O)c2ccc(N3CCCC3)cc2)C1 (centres unmarked) [#25]	66.1%
CCCCNc1ccc(S(=O)(=O)N2CCC(C(=O)O)CC2)cc1 [#27]	50.8%
NC(=O)c1cc(Br)cc(N2CCOCC2)c1 [#28]	62.6%
O=C(CCc1ccccc1)N1CCNCC1 [#29, hydrochloride]	62.5%
O=C(CCc1ccccc1)N1CCN(S(=O)(=O)c2ccc(F)cc2)CC1 [#30]	70.1%
CC(C)(C)OC(=O)N1CCN(c2ccc(S(=O)(=O)N3CCN(C(=O)CCc4ccccc4)CC3)cc2)CC1 [#31]	43.9%
O=C(CCc1ccccc1)N1CCN(S(=O)(=O)c2ccc(N3CCOCC3)cc2)CC1 [#32]	46.7%

Continued, values first:

remaining activity at 5 µM	SMILES
44.9%	O=C(CCc1ccccc1)N1CCN(S(=O)(=O)c2ccc(NC3CCCCC3)cc2)CC1 [#33]
59.3%	O=C(CCc1ccccc1)N1CCN(S(=O)(=O)c2ccc(N3CCCCC3)cc2)CC1 [#34]
56.3%	O=C(CCc1ccccc1)N1CCN(S(=O)(=O)c2ccc(N3CCCC3)cc2)CC1 [#35]
49%	CC(C)(C)OC(=O)N1CCN(c2ccc(S(=O)(=O)N3CCCC(C(=O)NCCc4ccccc4)C3)cc2)CC1 (centres unmarked) [#36]
55.4%	CCOc1ccc(S(=O)(=O)N2CCCC(NC(=O)CCc3ccccc3)C2)cc1 (centres unmarked) [#37]
43.8%	O=C(CCc1ccccc1)NC1CCCN(S(=O)(=O)c2ccc(N3CCC(Oc4ccccc4)CC3)cc2)C1 (centres unmarked) [#38]
74.5%	CC(C)OC1CCN(c2ccc(S(=O)(=O)N3CCCC(NC(=O)CCc4ccccc4)C3)cc2)CC1 (centres unmarked) [#39]
39%	CC1CCN(c2ccc(S(=O)(=O)N3CCCC(NC(=O)CCc4ccccc4)C3)cc2)CC1 (centres unmarked) [#40]
46.7%	CC(C)(C)OC(=O)N1CCC(C2CCN(c3ccc(S(=O)(=O)N4CCCC(NC(=O)CCc5ccccc5)C4)cc3)CC2)CC1 (centres unmarked) [#41]
66.3%	O=C(CCc1ccccc1)NC1CCCN(S(=O)(=O)c2ccc(N3CCC(C(F)(F)F)CC3)cc2)C1 (centres unmarked) [#42]
57.1%	O=C(CCc1ccccc1)NC1CCCN(S(=O)(=O)c2ccc(F)c(Cl)c2)C1 (centres unmarked) [#43]
40.5%	CC1CCCN(c2ccc(S(=O)(=O)N3CCCC(NC(=O)CCc4ccccc4)C3)cc2)C1 (centres unmarked) [#44]
52%	O=C(CCc1ccccc1)NC1CCCN(S(=O)(=O)c2ccc(N3CCCCC3)c(Cl)c2)C1 (centres unmarked) [#45]
67.7%	O=C(CCc1ccccc1)NC1CCCN(S(=O)(=O)c2ccc(N3CCC(F)(F)CC3)cc2)C1 (centres unmarked) [#46]
50.1%	CC1CCCCN1c1ccc(S(=O)(=O)N2CCCC(NC(=O)CCc3ccccc3)C2)cc1 (centres unmarked) [#47]
65.8%	CC(C)N(C(C)C)S(=O)(=O)c1ccc(N2CCCC(NC(=O)CCc3ccccc3)C2)cc1 (centres unmarked) [#49]
47.8%	O=C(CCc1ccccc1)NC1CCCN(c2ccc(S(=O)(=O)Nc3ccccc3)cc2)C1 (centres unmarked) [#50]
63.1%	O=C(CCc1ccccc1)NC1CCCN(c2ccc(S(=O)(=O)NC3CCCCC3)cc2)C1 (centres unmarked) [#51]
63.4%	O=C(CCc1ccccc1)NC1CCCN(c2ccc(S(=O)(=O)NCc3ccco3)cc2)C1 (centres unmarked) [#52]
66.2%	NS(=O)(=O)c1ccc(N2CCCC(NC(=O)CCc3ccccc3)C2)cc1 (centres unmarked) [#53]
48.4%	O=C(CCc1ccccc1)NC1CCCN(c2ccc(S(=O)(=O)N3CCCCC3)cc2)C1 (centres unmarked) [#54]
53.8%	O=C(CCc1ccccc1)NC1CCCN(c2ccc(S(=O)(=O)N3CCCC3)cc2)C1 (centres unmarked) [#55]
